Measured values reported in patent US9889125B2 (TAKEDA PHARMACEUTICALS U.S.A., INC., priority 2011, dated 2018).
Structures can show the parent of a compound that is named as a salt. Each block holds one compound with its values, some of them ahead of it.

What was measured:
[1] = tested on: platelet aggregation with ADP; test: Platelet function test: Aggregometry with adenosine diphosphate (ADP), maximum platelet aggregation (MPA); type: in vivo, human; settings: for MPA with 5 μM ADP, Mean (SD) / MPA with 20 μM ADP, Mean (SD): 9 days, 24 Hours Post Day 9 Dose
From the text: (§1) ANOVA models with sequence, subject within sequence, period and regimen were fitted to the pharmacodynamic parameters.

[2] = tested on: P2Y12 platelet reactivity; test: Platelet function test: VerifyNow, P2Y12 platelet reactivity unit (PRU); type: in vivo, human; settings: 9 days, 24 Hours Post Day 9 Dose
From the text: as §1

[3] = tested on: platelet function (Vasodilator-stimulated phosphoprotein, VASP); test: Platelet function test: Vasodilator-stimulated phosphoprotein (VASP), platelet reactivity index (PRI); type: in vivo, human; settings: for Difference in the LS-Means of PRI (with PPI vs without PPI): 9 days, 24 hours post Day 9 dose
From the text: as §1

CYP2C19 = biological target: T1, CYP2C19 (Homo sapiens, UniProt P33261); test: CYP2C19 inhibition by PPIs
T1 construct: The subject was a CYP2C19 extensive metabolizer (wt/wt); from tissue; host or cells: Liver of healthy study subjects (in vivo), CYP2C19 wt/wt genotype

[4] = PPI 80 mg with clopidogrel 300-mg loading dose and 75 mg/day maintenance dose; healthy subjects; cited from earlier work
[5] = PPI group dexlansoprazole 60 mg: clopidogrel 75 mg QD alone or clopidogrel + PPI
[6] = PPI group esomeprazole 40 mg: clopidogrel 75 mg QD alone or clopidogrel + PPI
[7] = PPI group lansoprazole 30 mg: clopidogrel 75 mg QD alone or clopidogrel + PPI
[8] = PPI group omeprazole 80 mg: clopidogrel 75 mg QD alone or clopidogrel + PPI
[9] = clopidogrel with dexlansoprazole 60 mg vs clopidogrel alone
[10] = clopidogrel with lansoprazole 30 mg vs clopidogrel alone

T1 sequence (P33261 whole entry): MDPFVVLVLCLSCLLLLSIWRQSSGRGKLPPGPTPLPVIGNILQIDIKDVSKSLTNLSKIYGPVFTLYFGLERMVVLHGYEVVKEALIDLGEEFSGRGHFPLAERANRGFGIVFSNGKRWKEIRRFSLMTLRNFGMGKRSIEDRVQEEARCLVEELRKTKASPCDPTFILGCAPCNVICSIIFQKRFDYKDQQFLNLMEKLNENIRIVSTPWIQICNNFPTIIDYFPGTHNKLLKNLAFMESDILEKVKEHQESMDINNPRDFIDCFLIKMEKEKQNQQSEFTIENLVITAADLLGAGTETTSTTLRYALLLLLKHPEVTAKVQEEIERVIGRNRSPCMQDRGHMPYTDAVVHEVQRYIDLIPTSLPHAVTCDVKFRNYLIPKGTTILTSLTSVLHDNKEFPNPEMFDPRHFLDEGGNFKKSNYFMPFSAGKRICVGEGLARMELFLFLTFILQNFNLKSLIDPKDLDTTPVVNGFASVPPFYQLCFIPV

SMILES: COC(=O)[C@H](c1ccccc1Cl)N1CCc2sccc2C1 [Clopidogrel, methyl (+)-(S)-α-(2-chlorophenyl)-6,7-dihydrothieno[3,2-c]pyridine-5 (4H)-acetate sulfate (1:1)]
MPA with 5 μM ADP, Mean (SD) [1, 5]: 34.6 (14.23) % | MPA with 20 μM ADP, Mean (SD) [1, 5]: 43.1 (13.24) % | MPA with 5 μM ADP, Mean (SD) [1, 6]: 29.3 (10.41) % | MPA with 20 μM ADP, Mean (SD) [1, 6]: 39.3 (13.22) % | MPA with 5 μM ADP, Mean (SD) [1, 7]: 28.1 (6.76) % | MPA with 20 μM ADP, Mean (SD) [1, 7]: 36.7 (9.11) % | MPA with 5 μM ADP, Mean (SD) [1, 8]: 34.2 (12.32) % | MPA with 20 μM ADP, Mean (SD) [1, 8]: 43.5 (14.00) % | PRU, Mean (SD) [2, 5]: 124.2 (79.10) % | PRU, Mean (SD) [2, 6]: 121.1 (50.64) % | PRU, Mean (SD) [2, 7]: 114.9 (56.44) % | PRU, Mean (SD) [2, 8]: 133.0 (67.62) %

CYP2C19 inhibition (strength of inhibitor) (CYP2C19): weak CYP2C19 inhibitors
SMILES: Cc1c(OCC(F)(F)F)ccnc1C[S@@+]([O-])c1nc2ccccc2[nH]1 [Dexlansoprazole]
Difference in the LS-Means of PRI (with PPI vs without PPI) ([3]; clopidogrel 75 mg QD with vs without dexlansoprazole 60 mg QD): 2.0474 | effect on clopidogrel PD in terms of PRI (90% CI of LS-Mean difference against 15% boundary) [3, 9]: equivalence in PD was demonstrated | increase in mean PRI [3, 9]: 2.0% | MPA with 5 μM ADP, Mean (SD) [1, 5]: 36.2 (16.87) % | MPA with 20 μM ADP, Mean (SD) [1, 5]: 46.3 (16.93) % | difference in MPA compared with clopidogrel alone, statistical significance ([1]; clopidogrel with dexlansoprazole 60 mg, either MPA (5 and 20 μM ADP)): not statistically significant | PRU, Mean (SD) [2, 5]: 146.7 (84.45) %

CYP2C19 inhibition (strength of inhibitor) (CYP2C19): potent CYP2C19 inhibitors
SMILES: COc1ccc2nc([S@@+]([O-])Cc3ncc(C)c(OC)c3C)[nH]c2c1 [Esomeprazole]
Difference in the LS-Means of PRI (with PPI vs without PPI) ([3]; clopidogrel 75 mg QD with vs without esomeprazole 40 mg QD): 11.4437 | effect on clopidogrel PD in terms of PRI (90% CI of LS-Mean difference against 15% boundary) ([3]; clopidogrel with esomeprazole 40 mg vs clopidogrel alone): very similar to omeprazole 80 mg | MPA with 5 μM ADP, Mean (SD) [1, 6]: 38.2 (17.77) % | MPA with 20 μM ADP, Mean (SD) [1, 6]: 47.9 (15.77) % | PRU, Mean (SD) [2, 6]: 177.6 (55.37) %

CYP2C19 inhibition (strength of inhibitor) (CYP2C19): weak CYP2C19 inhibitors
SMILES: Cc1c(OCC(F)(F)F)ccnc1C[S+]([O-])c1nc2ccccc2[nH]1 (stereo not drawn) [Lansoprazole]
Difference in the LS-Means of PRI (with PPI vs without PPI) ([3]; clopidogrel 75 mg QD with vs without lansoprazole 30 mg QD): 4.1016 | effect on clopidogrel PD in terms of PRI (90% CI of LS-Mean difference against 15% boundary) [3, 10]: equivalence in PD was demonstrated | increase in mean PRI [3, 10]: 4.1% | MPA with 5 μM ADP, Mean (SD) [1, 7]: 30.8 (9.35) % | MPA with 20 μM ADP, Mean (SD) [1, 7]: 41.6 (12.65) % | PRU, Mean (SD) [2, 7]: 131.8 (71.27) %

CYP2C19 inhibition (strength of inhibitor) (CYP2C19): potent CYP2C19 inhibitors
SMILES: COc1ccc2[nH]c([S+]([O-])Cc3ncc(C)c(OC)c3C)nc2c1 (stereo not drawn) [Omeprazole]
Difference in the LS-Means of PRI (with PPI vs without PPI) ([3]; clopidogrel 75 mg QD with vs without omeprazole 80 mg QD): 11.0407 | MPA with 5 μM ADP, Mean (SD) [1, 8]: 42.5 (14.74) % | MPA with 20 μM ADP, Mean (SD) [1, 8]: 53.5 (13.75) % | PRU, Mean (SD) [2, 8]: 201.5 (59.65) % | metabolic DDI with clopidogrel [4]: a metabolic DDI was found to exist
